Measurements taken from patent publication US20080139564A1, “SUBSTITUTED PHENYL PROPYL AMINES AS HISTAMINE H3 RECEPTOR AND SEROTONIN TRANSPORTER MODULATORS” (priority 2006, published 2008).
pKi: −log10 of the molar value.

Tests used:
Rat SERT = molecular target: T1, Rat SERT (Rattus norvegicus, UniProt P31652); assay: Rat brain SERT binding ([3H]-Citalopram displacement, rat brain membranes); conditions: 0.6 nM [3H]-Citalopram, 60 min at 25° C.
T1 construct: A rat brain without cerebellum (Zivic Laboratories, Inc.—Pittsburgh, Pa.) was homogenized; tissue Zivic Laboratories, Inc; host or cells: rat brain without cerebellum
Experimental: A rat brain without cerebellum (Zivic Laboratories, Inc.—Pittsburgh, Pa.) was homogenized in a 52.6 mM Tris pH 8/126.4 mM NaCl/5.26 mM KCl mixture and centrifuged at 1,000 rpm for 5 min. The supernatant was removed and re-centrifuged at 15,000 rpm for 30 min. Pellets were re-homogenized in a 52.6 mM Tris pH8/126.4 mM NaCl/5.26 mM KCl mixture. Membranes were incubated with 0.6 nM [^3H]-Citalopram plus/minus test compounds for 60 min at 25° C. and harvested by rapid filtration over GF/C glass fiber filters (pretreated with 0.3% polyethylenimine) followed by four washes with ice-cold buffer. Nonspecific binding was defined in the presence of 100 μM fluoxetine.

human SERT = molecular target: T2, human SERT (Homo sapiens, UniProt P31645); assay: Human SERT binding (3H-citalopram displacement, HEK293 membranes); conditions: 3H-citalopram 3.1 nM, rt for 1 h
T2 construct: expressed in transfected cells; host or cells: HEK293
Experimental: Homogenized HEK293 (Human Embryonic Kidney) membranes expressing the human SERT were incubated with ^3H-citalopram (SERT) at rt for 1 h in 50 mM Tris, 120 mM NaCl, 5 mM KCl (pH 7.4). Nonspecific binding was determined in the presence of 10 μM fluoxetine for the SERT. The membranes were washed and the radioactivity was counted as above. Calculations for Ki at the SERT were based on a Kd value for ^3H-citalopram and a ligand concentration of 3.1 nM.

human H3 receptor = molecular target: T3, human H3 receptor (Homo sapiens, UniProt Q9Y5N1); assay: H3 receptor binding (N-[3H]-α-methylhistamine displacement, SK-N-MC cell membranes); conditions: 0.8 nM N-[3H]-α-methylhistamine, 60 min at 25° C.
T3 construct: expressed in transfected cells
Experimental: Binding of compounds to the cloned human H3 receptor, stably expressed in SK-N-MC cells, was performed (Lovenberg, T. W. et al. J. Pharmacol. Exp. Ther. 2000, 293, 771-778). Briefly, cell pellets from SK-N-MC cells expressing the human H3 receptor were homogenized in 50 mM Tris-HCl/5 mM EDTA and re-centrifuged at 30,000 g for 30 min. Pellets were re-homogenized in 50 mM Tris/5 mM EDTA (pH 7.4). Membranes were incubated with 0.8 nM N—[^3H]-α-methylhistamine plus/minus test compounds for 60 min at 25° C. and harvested by rapid filtration over GF/C glass fiber filters (pretreated with 0.3% polyethylenimine) followed by four washes with ice-cold buffer. Nonspecific binding was defined in the presence of 10 μM histamine.

T3 sequence (Q9Y5N1 whole entry): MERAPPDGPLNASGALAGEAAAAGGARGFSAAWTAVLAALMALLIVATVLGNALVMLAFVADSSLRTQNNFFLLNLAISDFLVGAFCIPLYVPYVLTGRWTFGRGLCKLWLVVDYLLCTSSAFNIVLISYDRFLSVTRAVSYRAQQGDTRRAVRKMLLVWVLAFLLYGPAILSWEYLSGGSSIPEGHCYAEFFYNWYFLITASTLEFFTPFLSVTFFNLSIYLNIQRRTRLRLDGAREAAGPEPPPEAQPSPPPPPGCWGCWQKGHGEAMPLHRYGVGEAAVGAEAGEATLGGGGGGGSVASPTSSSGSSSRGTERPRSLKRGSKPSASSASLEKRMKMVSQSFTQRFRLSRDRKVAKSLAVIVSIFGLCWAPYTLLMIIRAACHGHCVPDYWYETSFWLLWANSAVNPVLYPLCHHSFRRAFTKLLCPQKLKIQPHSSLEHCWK
T1 sequence (P31652 whole entry): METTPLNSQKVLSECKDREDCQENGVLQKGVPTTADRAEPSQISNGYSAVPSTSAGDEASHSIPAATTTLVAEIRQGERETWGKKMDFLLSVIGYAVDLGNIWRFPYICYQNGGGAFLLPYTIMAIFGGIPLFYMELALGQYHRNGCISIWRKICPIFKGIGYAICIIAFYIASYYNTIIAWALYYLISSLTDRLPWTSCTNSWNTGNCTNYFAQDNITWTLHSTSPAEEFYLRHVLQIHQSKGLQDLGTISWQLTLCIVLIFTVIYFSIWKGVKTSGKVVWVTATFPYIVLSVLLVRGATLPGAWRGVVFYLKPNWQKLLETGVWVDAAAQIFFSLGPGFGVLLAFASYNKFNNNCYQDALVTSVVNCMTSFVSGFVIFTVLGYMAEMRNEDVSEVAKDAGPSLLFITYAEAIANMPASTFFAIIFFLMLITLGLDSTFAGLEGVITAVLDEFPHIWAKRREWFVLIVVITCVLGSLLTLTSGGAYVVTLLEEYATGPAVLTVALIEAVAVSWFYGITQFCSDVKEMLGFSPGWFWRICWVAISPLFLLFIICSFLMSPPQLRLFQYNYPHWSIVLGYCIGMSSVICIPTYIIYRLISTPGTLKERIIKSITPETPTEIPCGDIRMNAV
T2 sequence (P31645 whole entry): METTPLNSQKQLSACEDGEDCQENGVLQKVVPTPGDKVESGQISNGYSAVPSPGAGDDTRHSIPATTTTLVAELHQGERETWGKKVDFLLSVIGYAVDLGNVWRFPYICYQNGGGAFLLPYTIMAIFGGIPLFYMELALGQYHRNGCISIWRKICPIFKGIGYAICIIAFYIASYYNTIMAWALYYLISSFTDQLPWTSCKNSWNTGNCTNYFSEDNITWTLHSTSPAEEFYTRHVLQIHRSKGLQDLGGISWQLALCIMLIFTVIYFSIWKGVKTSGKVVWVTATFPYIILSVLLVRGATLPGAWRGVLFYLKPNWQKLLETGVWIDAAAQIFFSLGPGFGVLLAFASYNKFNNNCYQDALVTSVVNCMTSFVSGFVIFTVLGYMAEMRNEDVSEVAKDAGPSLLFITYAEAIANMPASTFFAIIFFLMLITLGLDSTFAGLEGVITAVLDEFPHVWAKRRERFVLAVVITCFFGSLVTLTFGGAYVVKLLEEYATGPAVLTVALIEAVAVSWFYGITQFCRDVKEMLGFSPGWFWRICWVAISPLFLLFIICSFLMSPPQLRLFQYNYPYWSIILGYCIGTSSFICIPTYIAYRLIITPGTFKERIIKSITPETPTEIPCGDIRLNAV

Row | SMILES | pKi (Rat SERT) | pKi (human SERT) | pKi (human H3 receptor)
1 | CN(C)CCC(Oc1ccc(Cl)c(Cl)c1)c1ccc(OCCCN2CCCCC2)cc1 (single isomer, unassigned; (+)) [Example 75, (+)-{3-(3,4-Dichloro-phenoxy)-3-[4-(3-piperidin-1-yl-propoxy)phenyl]-propyl}-dimethyl-amine] | 8.01 |  | 
2 | CN(C)CCC(Oc1ccc(Cl)c(Cl)c1)c1ccc(OCCCN2CCCCC2)cc1 (single isomer, unassigned; (-)) [Example 74, (−){3-(3,4-Dichloro-phenoxy)-3-[4-(3-piperidin-1-yl-propoxy)phenyl]-propyl}-dimethyl-amine] | 7.96 |  | 
3 | CN(C)CCC(Oc1ccccc1)c1cccc(OCCCN2CCCCC2)c1 (centres unmarked) [Example 3, Dimethyl-[3-phenoxy-3-[3-(3-piperidin-1-yl-propoxy)-phenyl]-propyl]-amine] | 7.80 | 6.70 | 8.52
4 | CSc1ccc(OC(CCN(C)C)c2ccc(OCCCN3CCCCC3)cc2)cc1 (centres unmarked) [Example 4, Dimethyl-{3-(4-methylsulfanyl-phenoxy)-3-[4-(3-piperidin-1-yl-propoxy)-phenyl]-propyl}-amine] | 8.89 | 8.00 | 9.05
5 | CN(C)CCC(Oc1ccc(C#N)cc1)c1ccc(OCCCN2CCCCC2)cc1 (centres unmarked) [Example 5, 4-{3-Dimethylamino-1-[4-(3-piperidin-1-yl-propoxy)-phenyl]-propoxy}-benzonitrile] | 8.10 | 6.80 | 9.70
6 | Cc1ccc(OC(CCN(C)C)c2ccc(OCCCN3CCCCC3)cc2)cc1 (centres unmarked) [Example 6, Dimethyl-{3-[4-(3-piperidin-1-yl-propoxy)-phenyl]-3-p-tolyloxy-propyl}-amine] | 8.82 | 7.80 | 9.22
7 | COc1ccc(OC(CCN(C)C)c2ccc(OCCCN3CCCCC3)cc2)cc1 (centres unmarked) [Example 7, {3-(4-Methoxy-phenoxy)-3-[4-(3-piperidin-1-yl-propoxy)-phenyl]-propyl}-dimethyl-amine] | 8.70 | 7.22 | 9.05
8 | CN(C)CCC(Oc1ccc(Cl)cc1)c1ccc(OCCCN2CCCCC2)cc1 (centres unmarked) [Example 8, {3-(4-Chloro-phenoxy)-3-[4-(3-piperidin-1-yl-propoxy)-phenyl]-propyl}-dimethyl-amine] | 8.70 | 7.80 | 8.77
9 | CN(C)CCC(Oc1ccc(Cl)c(Cl)c1)c1ccc(OCCCN2CCCCC2)cc1 (centres unmarked) [Example 9, {3-(3,4-Dichloro-phenoxy)-3-[4-(3-piperidin-1-yl-propoxy)-phenyl]-propyl}-dimethyl-amine] | 8.22 |  | 
10 | CN(C)CCC(Oc1ccc(F)cc1)c1ccc(OCCCN2CCCCC2)cc1 (centres unmarked) [Example 10, {3-(4-Fluoro-phenoxy)-3-[4-(3-piperidin-1-yl-propoxy)-phenyl]-propyl}-dimethyl-amine] | 8.89 | 7.34 | 9.00
11 | CN(C)CCC(Oc1cccc(Cl)c1)c1ccc(OCCCN2CCCCC2)cc1 (centres unmarked) [Example 14, {3-(3-Chloro-phenoxy)-3-[4-(3-piperidin-1-yl-propoxy)-phenyl]-propyl}-dimethyl-amine] |  | 8.15 | 8.77
12 | CN(C)CCC(Oc1ccc(Cl)cc1)c1ccc(C#CCCN2CCCCC2)cc1 (centres unmarked) [Example 25, {3-(4-Chloro-phenoxy)-3-[4-(4-piperidin-1-yl-but-1-ynyl)-phenyl]-propyl}-dimethyl-amine] | 7.41 |  | 7.68
13 | COc1ccc(OC(CCN(C)C)c2ccc(C#CCCN3CCSCC3)cc2)cc1 (centres unmarked) [Example 26, {3-(4-Methoxy-phenoxy)-3-[4-(4-thiomorpholin-4-yl-but-1-ynyl)phenyl]-propyl}-dimethyl-amine] | 7.37 |  | 7.96
14 | CN(C)CCC(Oc1ccc(C(F)(F)F)cc1)c1ccc(C#CCCN2CCOCC2)cc1 (centres unmarked) [Example 27, Dimethyl-[3-[4-(4-morpholin-4-yl-but-1-ynyl)-phenyl]-3-(4-trifluoromethyl-phenoxy)-propyl]-amine] | 7.10 |  | 7.22
15 | CN(C)CCC(Oc1ccc(C(F)(F)F)cc1)c1ccc(C#CCCN2CCSCC2)cc1 (centres unmarked) [Example 28, Dimethyl-[3-[4-(4-thiomorpholin-4-yl-but-1-ynyl)-phenyl]-3-(4-trifluoromethyl-phenoxy)-propyl]-amine] | 6.77 |  | 6.91
16 | CC(C)N1CCN(CCC#Cc2ccc(C(CCN(C)C)Oc3ccc(C(F)(F)F)cc3)cc2)CC1 (centres unmarked) [Example 29, [3-{4-[4-(4-Isopropyl-piperazin-1-yl)-but-1-ynyl]-phenyl}-3-(4-trifluoromethyl-phenoxy)-propyl]-dimethyl-amine] | 7.41 |  | 6.59
17 | CN(C)CCC(Oc1ccc(Cl)c(Cl)c1)c1ccc(C#CCCN2CCCCC2)cc1 (centres unmarked) [Example 30, {3-(3,4-Dichloro-phenoxy)-3-[4-(4-piperidin-1-yl-but-1-ynyl)phenyl]-propyl}-dimethyl-amine] | 7.68 |  | 7.62
18 | CC(C)N1CCN(C(=O)c2ccc(OC(CCN(C)C)c3ccc(C(F)(F)F)cc3)cc2)CC1 (centres unmarked) [Example 46, {4-[3-Dimethylamino-1-(4-trifluoromethyl-phenyl)-propoxy]-phenyl}-(4-isopropyl-piperazin-1-yl)-methanone] | 7.24 |  | 9.00
19 | CCCCN1CCN(C(=O)c2ccc(C(CCN(C)C)Oc3ccc(C(F)(F)F)cc3)cc2)CC1 (centres unmarked) [Example 48, (4-Butyl-piperazin-1-yl)-{4-[3-dimethylamino-1-(4-trifluoromethylphenoxy)-propyl]-phenyl}-methanone] | 7.07 |  | 7.77
20 | CCCCN1CCN(Cc2ccc(C(CCN(C)C)Oc3ccc(C(F)(F)F)cc3)cc2)CC1 (centres unmarked) [Example 49, [3-[4-(4-Butyl-piperazin-1-ylmethyl)-phenyl]-3-(4-trifluoromethylphenoxy)-propyl]-dimethyl-amine] | 7.32 |  | 7.14
21 | CN(C)CCC(Oc1ccc(C#CCCN2CCSCC2)cc1)c1ccc(Cl)cc1 (centres unmarked) [Example 58, {3-(4-Chloro-phenyl)-3-[4-(4-thiomorpholin-4-yl-but-1-ynyl)phenoxy]-propyl}-dimethyl-amine] | 6.82 |  | 7.54
22 | CN(C)CCC(Oc1ccc(C#CCCN2CCOCC2)cc1)c1ccc(Cl)cc1 (centres unmarked) [Example 59, {3-(4-Chloro-phenyl)-3-[4-(4-morpholin-4-yl-but-1-ynyl)-phenoxy]-propyl}-dimethyl-amine] | 6.74 |  | 7.25
23 | CN(C)CCC(Oc1ccc(C#CCCN2CCOCC2)cc1)c1ccccc1 (centres unmarked) [Example 61, Dimethyl-{3-[4-(4-morpholin-4-yl-but-1-ynyl)-phenoxy]-3-phenyl-propyl}-amine] | 6.97 |  | 6.99
24 | CC(C)N1CCN(CCC#Cc2ccc(OC(CCN(C)C)c3ccc(C(F)(F)F)cc3)cc2)CC1 (centres unmarked) [Example 62, [3-{4-[4-(4-Isopropyl-piperazin-1-yl)-but-1-ynyl]-phenoxy}-3-(4-trifluoromethyl-phenyl)-propyl]-dimethyl-amine] | 6.78 |  | 6.84
25 | CN(C)CCC(Oc1ccc(C#CCCN2CCSCC2)cc1)c1ccccc1 (centres unmarked) [Example 63, Dimethyl-{3-phenyl-3-[4-(4-thiomorpholin-4-yl-but-1-ynyl)phenoxy]-propyl}-amine] | 7.28 |  | 7.74
26 | CN(C)CCC(Oc1ccc(C#CCCN2CCOCC2)cc1)c1ccc(C(F)(F)F)cc1 (centres unmarked) [Example 64, Dimethyl-[3-[4-(4-morpholin-4-yl-but-1-ynyl)-phenoxy]-3-(4-trifluoromethyl-phenyl)-propyl]-amine] | 6.47 |  | 5.40
27 | CN(C)CCC(Oc1ccc(C#CCCN2CCSCC2)cc1)c1ccc(C(F)(F)F)cc1 (centres unmarked) [Example 76, Dimethyl-[3-[4-(4-thiomorpholin-4-yl-but-1-ynyl)-phenoxy]-3-(4-trifluoromethyl-phenyl)-propyl]-amine] | 6.27 |  | 7.12
28 | CN(C)CCC(Oc1ccc(C#CCCN2CCCCC2)cc1)c1ccc(F)cc1 (centres unmarked) [Example 77, {3-(4-Fluoro-phenyl)-3-[4-(4-piperidin-1-yl-but-1-ynyl)-phenoxy]-propyl}-dimethyl-amine] | 6.78 |  | 6.44
29 | CN(C)CCC(Oc1ccc(C(F)(F)F)cc1)c1ccc(C(=O)N2CCN(C3CCCCC3)CC2)cc1 (centres unmarked) [Example 78, (4-Cyclohexyl-piperazin-1-yl)-{4-[3-dimethylamino-1-(4-trifluoromethyl-phenoxy)-propyl]-phenyl}-methanone] | 6.65 |  | 7.66
